Test system: 935938-334-R-J1-PDC complex spheroid viability
Assay: Anticancer human tumor 935938-334-R-J1-PDC patient-derived small intestine adenocarcinoma cell line growth inhibition [POLQ]
Conditions: for IC50: curve of first compound; for viability, T/C: stronger effect = lower value
How it was run: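 PDC + HUVEC + MSC complex spheroids; POLQ inhibitors ± partner drugs; top conc. at/near clinical Cmax, else 10 microM (SN-38 1 microM), half-log dilutions; 37 degrees C, 5% CO2.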

[1] = second compound 0.0316 µM, first compound 0.0316 µM
[2] = second compound 0.0316 µM, first compound 0.1 µM
[3] = second compound 0.0316 µM, first compound 0.316 µM
[4] = second compound 0.0316 µM, first compound 1 µM
[5] = second compound 0.0316 µM, first compound 3.16 µM
[6] = second compound 0.0316 µM, first compound 10 µM
[7] = second compound 0.1 µM, first compound 0.0316 µM
[8] = second compound 0.1 µM, first compound 0.1 µM
[9] = second compound 0.1 µM, first compound 0.316 µM
[10] = second compound 0.1 µM, first compound 1 µM
[11] = second compound 0.1 µM, first compound 3.16 µM
[12] = second compound 0.1 µM, first compound 10 µM
[13] = second compound 0.316 µM, first compound 0.0316 µM
[14] = second compound 0.316 µM, first compound 0.1 µM
[15] = second compound 0.316 µM, first compound 0.316 µM
[16] = second compound 0.316 µM, first compound 1 µM
[17] = second compound 0.316 µM, first compound 3.16 µM
[18] = second compound 0.316 µM, first compound 10 µM
[19] = second compound 1 µM, first compound 0.0316 µM
[20] = second compound 1 µM, first compound 0.1 µM
[21] = second compound 1 µM, first compound 0.316 µM
[22] = second compound 1 µM, first compound 1 µM
[23] = second compound 1 µM, first compound 3.16 µM
[24] = second compound 1 µM, first compound 10 µM
[25] = second compound 3.16 µM, first compound 0.0316 µM
[26] = second compound 3.16 µM, first compound 0.1 µM
[27] = second compound 3.16 µM, first compound 0.316 µM
[28] = second compound 3.16 µM, first compound 1 µM
[29] = second compound 3.16 µM, first compound 3.16 µM
[30] = second compound 3.16 µM, first compound 10 µM
[31] = second compound 10 µM, first compound 0.0316 µM
[32] = second compound 10 µM, first compound 0.1 µM
[33] = second compound 10 µM, first compound 0.316 µM
[34] = second compound 10 µM, first compound 1 µM
[35] = second compound 10 µM, first compound 3.16 µM
[36] = second compound 10 µM, first compound 10 µM
[37] = second compound 0.0316 µM, first compound 0.00316 µM
[38] = second compound 0.0316 µM, first compound 0.01 µM
[39] = second compound 0.1 µM, first compound 0.00316 µM
[40] = second compound 0.1 µM, first compound 0.01 µM
[41] = second compound 0.316 µM, first compound 0.00316 µM
[42] = second compound 0.316 µM, first compound 0.01 µM
[43] = second compound 1 µM, first compound 0.00316 µM
[44] = second compound 1 µM, first compound 0.01 µM
[45] = second compound 3.16 µM, first compound 0.00316 µM
[46] = second compound 3.16 µM, first compound 0.01 µM
[47] = second compound 10 µM, first compound 0.00316 µM
[48] = second compound 10 µM, first compound 0.01 µM
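Also: spheroids exposed to drugs for seven days before viability read.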
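For viability, T/C in this document: 100% = DMSO vehicle control wells.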

## CNCc1ccc(-c2[nH]c3cc(F)cc4c3c2CCNC4=O)cc1 + Nc1ccc(C#CCN(C(=O)Cc2ncc(C(F)(F)F)cc2C(F)(F)F)c2ccc(F)cc2)nn1
Second compound 0.0316 µM
  IC50: > 10000 nM
Second compound 0.1 µM
  IC50: > 10000 nM
Second compound 0.316 µM
  IC50: > 10000 nM
Second compound 1 µM
  IC50: > 10000 nM
Second compound 3.16 µM
  IC50: > 10000 nM
Second compound 10 µM
  IC50: > 10000 nM
[1]
  viability, T/C: 96.6%
[2]
  viability, T/C: 104%
[3]
  viability, T/C: 105%
[4]
  viability, T/C: 77.2%
[5]
  viability, T/C: 80%
[6]
  viability, T/C: 96.1%
[7]
  viability, T/C: 85.8%
[8]
  viability, T/C: 80.5%
[9]
  viability, T/C: 112%
[10]
  viability, T/C: 91.8%
[11]
  viability, T/C: 100%
[12]
  viability, T/C: 96.5%
[13]
  viability, T/C: 126%
[14]
  viability, T/C: 102%
[15]
  viability, T/C: 110%
[16]
  viability, T/C: 95.7%
[17]
  viability, T/C: 107%
[18]
  viability, T/C: 89.2%
[19]
  viability, T/C: 77.2%
[20]
  viability, T/C: 78.2%
[21]
  viability, T/C: 121%
[22]
  viability, T/C: 86.7%
[23]
  viability, T/C: 111%
[24]
  viability, T/C: 127%
[25]
  viability, T/C: 109%
[26]
  viability, T/C: 79%
[27]
  viability, T/C: 110%
[28]
  viability, T/C: 106%
[29]
  viability, T/C: 75%
[30]
  viability, T/C: 104%
[31]
  viability, T/C: 111%
[32]
  viability, T/C: 99.5%
[33]
  viability, T/C: 107%
[34]
  viability, T/C: 116%
[35]
  viability, T/C: 106%
[36]
  viability, T/C: 130%

## Cn1ncnc1[C@H]1c2n[nH]c(=O)c3cc(F)cc(c23)N[C@@H]1c1ccc(F)cc1 + Cc1cccc(N(C)C(=O)C2C(O)CCN2c2nc(C)cc(C(F)(F)F)c2C#N)c1
Second compound 0.0316 µM
  IC50: > 100 nM
Second compound 0.1 µM
  IC50: > 100 nM
Second compound 0.316 µM
  IC50: > 100 nM
Second compound 1 µM
  IC50: > 100 nM
Second compound 3.16 µM
  IC50: > 100 nM
Second compound 10 µM
  IC50: > 100 nM
Second compound 0.0316 µM, first compound 0.000316 µM
  viability, T/C: 143%
Second compound 0.0316 µM, first compound 0.001 µM
  viability, T/C: 88.6%
[37]
  viability, T/C: 102%
[38]
  viability, T/C: 94.5%
[1]
  viability, T/C: 97.8%
[2]
  viability, T/C: 102%
Second compound 0.1 µM, first compound 0.000316 µM
  viability, T/C: 85.5%
Second compound 0.1 µM, first compound 0.001 µM
  viability, T/C: 91.3%
[39]
  viability, T/C: 107%
[40]
  viability, T/C: 143%
[7]
  viability, T/C: 111%
[8]
  viability, T/C: 70%
Second compound 0.316 µM, first compound 0.000316 µM
  viability, T/C: 108%
Second compound 0.316 µM, first compound 0.001 µM
  viability, T/C: 107%
[41]
  viability, T/C: 80.5%
[42]
  viability, T/C: 108%
[13]
  viability, T/C: 91%
[14]
  viability, T/C: 83.4%
Second compound 1 µM, first compound 0.000316 µM
  viability, T/C: 89.8%
Second compound 1 µM, first compound 0.001 µM
  viability, T/C: 99.6%
[43]
  viability, T/C: 97.7%
[44]
  viability, T/C: 82.1%
[19]
  viability, T/C: 114%
[20]
  viability, T/C: 60.4%
Second compound 3.16 µM, first compound 0.000316 µM
  viability, T/C: 125%
Second compound 3.16 µM, first compound 0.001 µM
  viability, T/C: 80.8%
[45]
  viability, T/C: 105%
[46]
  viability, T/C: 88.5%
[25]
  viability, T/C: 89.9%
[26]
  viability, T/C: 89.6%
Second compound 10 µM, first compound 0.000316 µM
  viability, T/C: 103%
Second compound 10 µM, first compound 0.001 µM
  viability, T/C: 87.5%
[47]
  viability, T/C: 77.6%
[48]
  viability, T/C: 118%
[31]
  viability, T/C: 87.9%
[32]
  viability, T/C: 89%

## COc1cc2cc(C(=O)CCC(=O)O)sc2cc1OC + Cc1cccc(N(C)C(=O)C2C(O)CCN2c2nc(C)cc(C(F)(F)F)c2C#N)c1
Second compound 0.0316 µM
  IC50: > 10000 nM
Second compound 0.1 µM
  IC50: > 10000 nM
Second compound 0.316 µM
  IC50: > 10000 nM
Second compound 1 µM
  IC50: > 10000 nM
Second compound 3.16 µM
  IC50: > 10000 nM
Second compound 10 µM
  IC50: > 10000 nM
[1]
  viability, T/C: 116%
[2]
  viability, T/C: 84.3%
[3]
  viability, T/C: 88.5%
[4]
  viability, T/C: 83.9%
[5]
  viability, T/C: 85.1%
[6]
  viability, T/C: 80.8%
[7]
  viability, T/C: 100%
[8]
  viability, T/C: 85.6%
[9]
  viability, T/C: 92.4%
[10]
  viability, T/C: 95.7%
[11]
  viability, T/C: 62.9%
[12]
  viability, T/C: 81.9%
[13]
  viability, T/C: 79.7%
[14]
  viability, T/C: 82.5%
[15]
  viability, T/C: 68.3%
[16]
  viability, T/C: 88.9%
[17]
  viability, T/C: 84.8%
[18]
  viability, T/C: 93.8%
[19]
  viability, T/C: 91.7%
[20]
  viability, T/C: 96.5%
[21]
  viability, T/C: 103%
[22]
  viability, T/C: 81.1%
[23]
  viability, T/C: 74%
[24]
  viability, T/C: 83.4%
[25]
  viability, T/C: 82.1%
[26]
  viability, T/C: 95.6%
[27]
  viability, T/C: 98.5%
[28]
  viability, T/C: 95.9%
[29]
  viability, T/C: 98.2%
[30]
  viability, T/C: 95.1%
[31]
  viability, T/C: 135%
[32]
  viability, T/C: 75.6%
[33]
  viability, T/C: 96.2%
[34]
  viability, T/C: 112%
[35]
  viability, T/C: 114%
[36]
  viability, T/C: 105%

## CCc1c2c(nc3ccc(O)cc13)-c1cc3c(c(=O)n1C2)COC(=O)[C@]3(O)CC + Nc1ccc(C#CCN(C(=O)Cc2ncc(C(F)(F)F)cc2C(F)(F)F)c2ccc(F)cc2)nn1
Second compound 0.0316 µM
  IC50: 20.2 nM
Second compound 0.1 µM
  IC50: 17.1 nM
Second compound 0.316 µM
  IC50: 18.3 nM
Second compound 1 µM
  IC50: 22.3 nM
Second compound 3.16 µM
  IC50: 15.1 nM
Second compound 10 µM
  IC50: 22.1 nM
[37]
  viability, T/C: 83.8%
[38]
  viability, T/C: 61.7%
[1]
  viability, T/C: 44.2%
[2]
  viability, T/C: 28.6%
[3]
  viability, T/C: 31.6%
[4]
  viability, T/C: 29.2%
[39]
  viability, T/C: 93.6%
[40]
  viability, T/C: 64.3%
[7]
  viability, T/C: 33.8%
[8]
  viability, T/C: 29.6%
[9]
  viability, T/C: 34.7%
[10]
  viability, T/C: 32%
[41]
  viability, T/C: 108%
[42]
  viability, T/C: 65.8%
[13]
  viability, T/C: 35.1%
[14]
  viability, T/C: 36.2%
[15]
  viability, T/C: 30.6%
[16]
  viability, T/C: 28.9%
[43]
  viability, T/C: 109%
[44]
  viability, T/C: 81.8%
[19]
  viability, T/C: 36.1%
[20]
  viability, T/C: 32.6%
[21]
  viability, T/C: 34.4%
[22]
  viability, T/C: 30.1%
[45]
  viability, T/C: 93.2%
[46]
  viability, T/C: 51.8%
[25]
  viability, T/C: 43.9%
[26]
  viability, T/C: 40.4%
[27]
  viability, T/C: 30.8%
[28]
  viability, T/C: 30.6%
[47]
  viability, T/C: 88.8%
[48]
  viability, T/C: 67.9%
[31]
  viability, T/C: 41%
[32]
  viability, T/C: 37.3%
[33]
  viability, T/C: 31%
[34]
  viability, T/C: 32.2%
